Results: US4739067A, “4-(1,2,5,6-tetrahydro-1-alkyl-3-pyridinyl)-2-thiazolamines and 4-(hexahydro-1-alkyl-3-pyridinyl)-2-thiazolamines” (priority 1986, dated 1988)
Where two headings read alike, the source gives them in different places.

Key:
[1] = biological target: T1, Haloperidol Receptor (Bos taurus, UniProt P20288); experiment: Haloperidol Receptor Binding (dopaminergic agents); settings: read-out: % Inhibition (Haloperidol Receptor Binding)
T1 construct: from tissue
Description: The method for determining the effectiveness of the compounds of the instant invention as dopaminergic agents is explained in Mol. Pharmacol., 1976 (12) 800 herein incorporated by reference.

[2] = test system: Locomotor Activity in Mouse; experiment: Inhibition of Locomotor Activity in Mouse (Mouse Activity and Screen Test Procedure); type: in vivo; settings: read-out: ED50, Inhibition of Locomotor Activity in Mouse
Description: The effects of representative compounds of the present invention as antipsychotic agents was established by the Mouse Activity and Screen Test Procedure described in Pharmacol. Biochem. Behav. 1978 (8) 97, herein incorporated by reference.
Inhibition of Locomotor Activity in Mouse

[3] = test system: Spontaneous Hypertensive Rat; experiment: Antihypertensive action, Spontaneous Hypertensive Rat; type: in vivo; settings: 30 mg/kg, PO
Experimental: The methodology for testing the antihypertensive action of the compounds of the invention is described in Am. J. Med. Sci., 1970 (259)257, herein incorporated by reference. These experiments are considered standard tests in mammals and are indicative of utility for treatment of similar diseases in humans.
Spontaneous Hypertensive Rat (30 mg/kg, PO)

T1 sequence (P20288 whole entry): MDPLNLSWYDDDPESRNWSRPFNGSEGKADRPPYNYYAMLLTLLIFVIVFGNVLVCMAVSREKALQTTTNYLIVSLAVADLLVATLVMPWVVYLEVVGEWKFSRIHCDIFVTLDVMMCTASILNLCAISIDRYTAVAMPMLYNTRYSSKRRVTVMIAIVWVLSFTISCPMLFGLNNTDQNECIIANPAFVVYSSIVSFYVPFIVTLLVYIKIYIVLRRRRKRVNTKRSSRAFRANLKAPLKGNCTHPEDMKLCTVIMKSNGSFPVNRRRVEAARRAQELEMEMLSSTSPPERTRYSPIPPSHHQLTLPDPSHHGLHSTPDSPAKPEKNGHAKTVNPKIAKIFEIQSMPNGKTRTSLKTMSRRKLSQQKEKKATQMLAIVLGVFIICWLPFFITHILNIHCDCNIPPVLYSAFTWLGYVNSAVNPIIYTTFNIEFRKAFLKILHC

inhibition at 1 µM ([1]; at 10^-6 M) [%]	Compound	ED50 [2] [mg/kg]	further results
0	CCCN1CCC=C(c2csc(NC(C)=O)n2)C1 [N-[4-(1,2,5,6-Tetrahydro-1-propyl-3-pyridinyl)-2-thiazolyl]-acetamide]	30	–
–	Nc1nc(C2=CCCN(CCc3ccccc3)C2)cs1 [III (double bond) R=R'=H; R"=(CH2)2 Ph, 4-[1,2,5,6-Tetrahydro-1-(2-phenylethyl)-3-pyridinyl]-2-thiazolamine]	18.1	inhibition at 1 µM [1]: 16%
0	CCCCCN1CCC=C(c2csc(NC(C)=O)n2)C1 [N-[4-(1,2,5,6-Tetrahydro-1-pentyl-3-pyridinyl)-2-thiazolyl]acetamide]	10	–
–	CCCN1CCCC(c2csc(N)n2)C1 (stereo not drawn) [III (single bond) R=R'=H; R"=(CH2)2 CH3, 4-(1-Propyl-3-piperidyl)-2-thiazolamine]	10	inhibition at 1 µM [1]: 15%
88	CCCCCCN1CCC=C(c2csc(N)n2)C1 [III (double bond) R=R'=H; R"=(CH2)5 CH3, 4-(1,2,5,6-Tetrahydro-1-hexyl-3-pyridinyl)-2-thiazolamine]	> 30	–
–	CCCCCCCN1CCC=C(c2csc(N)n2)C1 [III (double bond) R=R'=H; R"=(CH2)6 CH3, 4-(1,2,5,6-Tetrahydro-1-heptyl-3-pyridinyl)-2-thiazolamine]	10.4	–
–	CCCN1CCC=C(c2csc(N)n2)C1 [drawing 5]	–	Decrease in Blood Pressure ([3]; duration 1 hour): 20%; Decrease in Blood Pressure ([3]; duration up to 6 hours): 10-15%; Duration (of decrease in blood pressure) ([3]; of the 10-15% decrease): up to 6 hours; Duration (of decrease in blood pressure) ([3]; of the 20% decrease): 1 h
–	CCCN1CCC=C(c2csc(N(C)C(C)=O)n2)C1 [N-methyl-N-[4-(1,2,5,6-tetrahydro-1-propyl-3-pyridinyl)-2-thiazolyl]-acetamide]	39	–
–	CCCN1CCC=C(c2csc(NC)n2)C1 [N-Methyl-4-(1,2,5,6-tetrahydro-1-propyl-3-pyridinyl)-2-thiazolamine]	10	–
–	CCCCCN1CCC=C(c2csc(NC)n2)C1 [N-methyl-4-(1,2,5,6-tetrahydro-1-pentyl-3-pyridinyl)-2-thiazolamine]	< 10	–
66	CCCN1CCC=C(c2csc(N)n2)C1 [III (double bond) R=R'=H; R"=(CH2)2 CH3, 4-(1,2,5,6-Tetrahydro-1-propyl-3-pyridinyl)-2-thiazolamine]	2.9	–
40	C=CCN1CCC=C(c2csc(N)n2)C1 [III (double bond) R=R'=H; R"=CH2 CH=CH2, 4-(1,2,5,6-Tetrahydro-1-allyl-3-pyridinyl)-2-thiazolamine]	3	–
50	CN1CCC=C(c2csc(N)n2)C1 [III (double bond) R=R'=H; R"=CH3, 4-(1,2,5,6-Tetrahydro-1-methyl-3-pyridinyl)-2-thiazolamine]	30	–
26	CCCCCN1CCC=C(c2csc(N)n2)C1 [III (double bond) R=R'=H; R"=(CH2)4 CH3, 4-(1,2,5,6-Tetrahydro-1-pentyl-3-pyridinyl)-2-thiazolamine]	< 10	–
35	CCOCCN1CCC=C(c2csc(N)n2)C1 [4-[1-(2-Ethoxyethyl)-1,2,5,6-tetrahydro-3-pyridinyl]-2-thiazolamine]	30	–
49	CCN1CCC=C(c2csc(N)n2)C1 [III (double bond) R=R'=H; R"=CH2 CH3, 4-(1,2,5,6-Tetrahydro-1-ethyl-3-pyridinyl)-2-thiazolamine]	> 30	–
57	CCCCN1CCC=C(c2csc(N)n2)C1 [III (double bond) R=R'=H; R"=(CH2)3 CH3, 4-(1,2,5,6-Tetrahydro-1-butyl-3-pyridinyl)-2-thiazolamine]	7.3	–
–	CC(C)CCN1CCC=C(c2csc(N)n2)C1 [drawing 6]	–	Decrease in Blood Pressure ([3]; duration up to 10 hours): 12-20%; Duration (of decrease in blood pressure) ([3]; of the 12-20% decrease): up to 10 hours
9	CCCN1CCCC(c2csc(NC(C)=O)n2)C1 (stereo not drawn) [N-[4-(1-propyl-3-piperidyl)-2-thiazolyl]acetamide]	30	–
–	CCCCCN1CCC=C(c2csc(N(C)C(C)=O)n2)C1 [N-methyl-N-[4-(1,2,5,6-tetrahydro-1-pentyl-3-pyridinyl)-2-thiazolyl[-acetamide]	6.4	–
65	CC(C)CCN1CCC=C(c2csc(N)n2)C1 [4-[1,2,5,6-Tetrahydro-1-(3-methylbutyl)-3-pyridinyl]-2-thiazolamine]	8.7	–
